Tests used:
atopic eczema = experiment: DNCB-induced atopic eczema model, image analysis of skin appearance; format: in vivo; settings: balb/c mice
Method: (a) Preparation of Animal and Induction of Atopic Eczema:
(§1) The balb/c mice were used in this experiment. The method for inducing atopic eczema comprised: (1) prepared 1% DNCB in olive oil/acetone (1:4); and (2) applied 1% DNCB on the shaved skins of the backs of balb/c mice at day 1, 3, 9, and 11, respectively. The balb/c mice were randomly divided into three groups: (A) the control group; (B) the atopic eczema group; and (C) the EXC-B treating group. The EXC-B treating group was treated with excavatolide B for seven consecutive days starting from day 15. Next, the present invention assessed the treating effect of EXC-B on atopic eczema by image analysis of the appearance.

[1] = test system: vascular endothelial growth factor (VEGF); experiment: Staining of VEGF expression level in tissue of burn wound; format: in vivo, rat; settings: rats, lotion containing EXC-B
Method: (§2) (b) Immunohistochemistry Staining:
(§3) Mice were scarified by cervical dislocation. The skin tissues of the backs of the mice were collected, fixed with formalin buffer and embedded in paraffin. The tissue sections were treated with a graded alcohol bath after the paraffin-embedded tissue sections (2 μm) were deparaffinized by xylene. Next, the sections reacted with 0.3% hydrogen peroxide for 30 minutes to remove endogenous peroxidase. After the paraffin-embedded tissue sections reacted with a protein K in a 4% phosphate buffer for 20 minutes at 37° C., the paraffin-embedded tissue sections were washed with 4% phosphate buffer and then blocked with horse serum diluted by phosphate buffer for 1 hr. Next, the sections were incubated with a diluted target protein antibody for 18-20 hr at 4° C. in a humid environment. After recycling the antibody, the horse serum was reused to incubate the sections for 1 hr and the sections subsequently reacted with an added corresponding secondary antibody for 90 minutes. After the sections reacted with ABC kit, DBA was used to produce color reaction, and the sections were air-dried with a graded alcohol bath and covered with a cover glass. The completed sample section was placed in an optical microscope (DM 6000, Leica Inc, Germany) and a stereomicroscope (APO Z16, Leica Inc. Singapore). […]

burn wound tissue = experiment: HE staining of tissue section of burn wound; format: in vivo, Male Wistar rats; settings: rats, lotion containing EXC-B; HE stained tissue section (FIG. 5)
Method: Pathologic Tissue Slice and HE Staining
After the rats had suffered injuries for specific days according to experimental design they were humanely sacrificed, PBS containing heparin (0.2 U/ml) at 4 degrees Celsius was injected into aorta until PBS carrying no color flowed out of the vein. 4% paraformaldehyde at 4° C. was injected to fasten it, the wounded area was carefully taken out by surgical blades and immersed into 10% Formalin fixing solution to be reserved at 4° C. and fixed for several days. Next, the fixed tissue was dehydrated and wax infiltrated. The skin tissue was dehydrated and wax infiltrated by utilizing a tissue automatic processing system. Afterwards, the tissue was embedded by a paraffin embedding machine into paraffin blocks. After tissue blocks were sliced through a paraffin microtome, tissue slices were stained by using hematoxylin and eosin stain. Upon completion, tissue slices were mounted by micro-mount, and completed sample slices then were placed on an optical microscope for observation, the sample slices were further photographed and recorded by the digital image capture system.

diabetic incised wound = experiment: Healing of diabetic incised wound (wound appearance and wound area); format: in vivo, Male Wistar rats; settings: STZ-diabetic rats
Method: (a) Preparation of Animal and Operation of Incised Wound in Diabetic Rat:
Male Wistar rats (400-450 g) were used in this experiment. The induction of diabetes was performed by using a citrate buffer solution to prepare streptozotocin (STZ, catalog No. 85882 FLUKA, Sigma, St. Louis, Mo., USA). The rats were anesthetized by 2.5% isoflurane and administered with STZ (60 mg/kg) by tail intravenous injection. A week after STZ injection, those rats with blood glucose levels more than 250 mg/dl were identified as successfully diabetic inducted rats. […] After the surgery of the incision of full-layered skins, the rats were randomly divided into two groups: (1) diabetic incised wound group (administered a normal lotion); and (2) EXC-B treating group (administered a lotion containing excavatolide B). The EXC-B treating group was treated with 1 mg/0.2 ml of excavatolide B in the lotion daily.
(§4) (c) Wound Observation and Area Calculation:
After being burned, the rats were anesthetized and then taken pictures according to experimentally designed dates. A series of pictures were taken by a digital camera (Coolpix P6000, Nikon, Japan) under the same condition (the diaphragm is 7.2, and the camera shutter is 1/60). A digital image capture system software (Diagnostic Instruments, Inc., Sterling Heights, Mich., U.S.A.) was used to analyze the captured wound pictures to calculate the wound area. […]

[2] = test system: angiogenesis (blood vessels marked by vWF); experiment: Staining of angiogenesis (blood vessels marked by vWF) in tissue of burn wound; format: in vivo, rat; settings: rats, lotion containing EXC-B, versus silver sulphadiazine treating group (FIG. 6)
Method: as §2, §3

burn wound = experiment: Healing of burn wound (wound appearance and wound area); format: in vivo, Male Wistar rats; settings: rats; for wound healing depended on time (burned restoring area, area under the curve) compared to burn wound group and lotion treating group: day 0-27 (FIG. 4)
Method: (b) Preparation of Animal and Operation of Burn Wound:
Male Wistar rats (400-450 g) were used in this experiment. After the rats were anesthetized by 2.5% isoflurane, the present invention selected four burned locations (two locations beneath the scapula of the rat and two locations in the midline of the lumbar spine) on the back of the anesthetized rat. The skins of the burned locations were tightened, and a copper block (2×2 cm) which was preheated to 175° C. by a dry bath was used to closely touch these skins of the locations for 10 seconds to form burn wounds of full-layered skins. The copper block was appropriately moved in order to form a quadrilateral form of burn wound during the burning process. Attention was paid not to add extra pressure on the copper block in order to ensure the same burn pressure each time during the burning process.
as §4
After being burned, the rats were anesthetized and then taken pictures according to experimentally designed dates. A series of pictures were taken by a digital camera (Coolpix P6000, Nikon, Japan) under the same condition (the diaphragm is 7.2, and the camera shutter is 1/60). A digital image capture system software (Diagnostic Instruments, Inc., Sterling Heights, Mich., U.S.A.) was used to analyze the captured wound pictures to calculate the wound area. The data of the wound area at each observation point were respectively presented at percentage of the wound area relative to day zero.

substance P = experiment: Staining of itchy factor (substance P as marker) in atopic eczema; format: in vivo; settings: balb/c mice, 50 μg/0.2 ml of excavatolide B in lotion (FIG. 9)
Method: as §1, §2
(§5) Mice were scarified by cervical dislocation. The skin tissues of the backs of the mice were collected, fixed with formalin buffer and embedded in paraffin. The tissue sections were treated with a graded alcohol bath after the paraffin-embedded tissue sections (2 μm) were deparaffinized by xylene. Next, the sections reacted with 0.3% hydrogen peroxide for 30 minutes to remove endogenous peroxidase. After the paraffin-embedded tissue sections reacted with a protein K in a 4% phosphate buffer for 20 minutes at 37° C., the paraffin-embedded tissue sections were washed with 4% phosphate buffer and then blocked with horse serum diluted by phosphate buffer for 1 hr. […]

filaggrin = experiment: Staining of regulating factor for skin barrier function (filaggrin as marker) in atopic eczema; format: in vivo; settings: balb/c mice, 50 μg/0.2 ml of excavatolide B in lotion (FIG. 10)
Method: as §1, §2, §5

VEGF = experiment: Staining of VEGF expression level in tissue of atopic eczema; format: in vivo; settings: balb/c mice, 50 μg/0.2 ml of excavatolide B in lotion (FIG. 8)
Method: as §1, §2, §5

Substance: excavatolide B [EXC-B]
- side effects of the clinical treatment, such as skin dryness and albinism (atopic eczema; 50 μg/0.2 ml of excavatolide B in lotion (FIG. 7)): no side effects of the clinical treatment were observed
- condition of the treated skin (inflammations, scratched wounds) (atopic eczema; 50 μg/0.2 ml of excavatolide B in lotion, seven consecutive days from day 15 (FIG. 7)): significantly better than the skin of the atopic eczema
- expression level of the VEGF of the burned tissue ([1]; versus lotion treating group (FIG. 6)): substantially increased
- treating effect on VEGF expression of the burned tissue relative to silver sulphadiazine ([1]; versus silver sulphadiazine treating group (FIG. 6)): better than the effect of the silver sulphadiazine
- tissue changes induced by burn injury (thickening of epithelial layer, damages to dermis, infiltration of neutrophils) (burn wound tissue): significantly improved
- wound healing (appearance, image analysis) compared to the diabetic incised wound group (diabetic incised wound; 1 mg/0.2 ml of excavatolide B in lotion daily, topical, appearance at 4-25 days after incised injury (FIG. 1)): significantly improved
- wound healing (wound restoring area depended on time) compared to the diabetic incised wound group (diabetic incised wound; 1 mg/0.2 ml of excavatolide B in lotion, at day 7, 21, and 28 (FIG. 2)): significantly improved
- rate of vascular proliferation (blood vessels marked by vWF) [2]: higher than that of the silver sulphadiazine treating group
- wound healing depended on time (burned restoring area, area under the curve) compared to burn wound group and lotion treating group (burn wound; 10 μg EXC-B treating group): significantly accelerate wound healing
- wound healing (appearance, image analysis) after burn injury (burn wound; 10 μg/0.2 ml of EXC-B in lotion, appearance at 2-24 days after burn injury (FIG. 3 K-O)): significantly improved
- wound healing depended on time (burned restoring area, area under the curve) compared to burn wound group and lotion treating group (burn wound; 50 μg EXC-B treating group): significantly accelerate wound healing
- wound healing (appearance, image analysis) after burn injury (burn wound; 50 μg/0.2 ml of EXC-B in lotion, appearance at 2-24 days after burn injury (FIG. 3 P-T)): significantly improved
- itchy factors (the substance P as the marker) in the tissue of the skin (substance P): significantly inhibited
- decrease of the regulating factor (filaggrin as the marker) for skin barrier function (filaggrin): recovered
- increased expression of the VEGF in the tissue of atopic eczema (VEGF): inhibited
